According to paper PMC7155212 (Journal of Enzyme Inhibition and Medicinal Chemistry, 2020):

Assays:
AChE = AChE (Electrophorus electricus, UniProt O42275); assay: Kinetic characterisation of AChE inhibition (Lineweaver-Burk); format: biochemical; settings: Lineweaver-Burk plot, Figure 1A
Protocol: (§1) To obtain the mechanism of action of 13, reciprocal plots of 1/velocity versus 1/[substrate] were constructed at different concentrations of the substrate […] by using Ellman’s method. Compound 13 was added to the assay solution and preincubated with the enzyme at 37 °C for 5 min, followed by the addition of the substrate. Kinetic characterisation catalysed by enzyme was achieved spectrometrically at 412 nm. A parallel control experiment was carried out without compound 13 in the mixture. Lineweaver–Burk plot was made based on the reaction rate and substrate concentration to determine the type of inhibition of the ChE by the compound.

[1] = In vitro antioxidant activity (DPPH radical scavenging); settings: DPPH free radical scavenging, 30 min at 37 °C, mean ± SD (n = 3)
Protocol: The assay provides an assessment of the antioxidant activity due to free radical scavenging by measuring hydrogen atom (or one electron) donating activity. DPPH is a purple stable free radical that is reduced to a yellow-coloured diphenylpicryl hydrazine by an antioxidant. The spectrophotometric assay was carried out as described by the literature method with a slight modification. 100 μL of a sample solution was added to 100 μL of DPPH solution. Following 30 min of incubation at 37 °C and protection from light, the absorbance at 517 nm was determined using a microplate reader. Each group was measured three times in parallel to average. IC50 values were calculated. The percentage of DPPH radical scavenging rate of the target compound is calculated as follows: DPPH free radical scavenging effect (%)=[A0 – (A1−A2)]/A0×100% where A0 is the absorbance of blank group; A1 is the absorbance of sample group; A2 is the absorbance of sample blank group.

MAO-B = target: T1, MAO-B (Rattus norvegicus, UniProt P19643); assay: In vitro MAO inhibitory activity (Holt method, crude enzyme from rat liver); format: biochemical, Wistar rat; settings: rat liver crude enzyme, 4-(trifluoromethyl)benzylamine substrate, mean ± SD (n = 3); read-out: IC50 value MAO-B inhibitory activity
T1 construct: The crude enzyme was extracted from the liver of 200–250 g of Wistar rats; from tissue; host or cells: liver of Wistar rats (crude enzyme)
T1 sequence (P19643 1-520): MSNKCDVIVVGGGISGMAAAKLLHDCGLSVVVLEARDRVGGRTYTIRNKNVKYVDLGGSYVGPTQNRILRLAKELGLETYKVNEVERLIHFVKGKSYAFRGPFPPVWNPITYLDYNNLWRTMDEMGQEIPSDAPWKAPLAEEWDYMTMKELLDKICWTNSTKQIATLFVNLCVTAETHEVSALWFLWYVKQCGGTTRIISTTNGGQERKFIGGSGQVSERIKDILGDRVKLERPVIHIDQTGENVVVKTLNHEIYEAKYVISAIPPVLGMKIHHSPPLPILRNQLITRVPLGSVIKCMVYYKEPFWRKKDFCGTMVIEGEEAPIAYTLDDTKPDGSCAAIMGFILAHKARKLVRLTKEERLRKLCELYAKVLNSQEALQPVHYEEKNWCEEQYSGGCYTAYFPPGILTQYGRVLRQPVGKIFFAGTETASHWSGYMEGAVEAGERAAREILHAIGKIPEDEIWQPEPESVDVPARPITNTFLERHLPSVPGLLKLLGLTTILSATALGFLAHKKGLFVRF
Protocol: The MAO inhibitory activity of the 3-arylbenzofuranone compounds was determined by the method of Holt et al.[17] with slight modifications. The crude enzyme was extracted from the liver of 200–250 g of Wistar rats according to literature methods[18]^,[19]. The crude enzyme protein content was determined by the Bradford method using a Bradford Protein Assay Kit (Beyotime). The assay was performed in 0.2 M potassium phosphate buffer pH 7.6 on 96-well plates in 240 μl total volume. The chromogenic solution containing 1 mM vanillic acid, 0.5 mM 4-aminoantipyrine, and 4 U/ml horseradish peroxidase in 0.2 M potassium phosphate buffer pH 7.6 was mixed anew for each measurement. 40 μL of enzyme solution and 40 μL of sample solution were added to a 96-well plate. The solution was then incubated at 37 °C for 20 min. 120 μL of the 4-(trifluoromethyl) benzylamine solution and 40 μL of the chromogenic solution were added subsequently and incubated at 37 °C for 90 min. The absorbance was measured at 490 nm using a microplate reader, and the inhibition rate of MAO and the IC50 value of each sample were calculated according to the formula. The control group replaced the sample solution with PBS (0.2 M, pH = 7.6), the positive control replaced the sample with the positive drug, and the blank group replaced the substrate with PBS, and each group was measured three times in parallel to average. Monoamine oxidase inhibitory effect (%) = [(AC – AB) – (AS – ASB )]/(AC – AB)×100% where AC is the absorbance of control group; AB is the absorbance of blank group; AS is the absorbance of sample group; ASB is the absorbance of sample blank group.

BuChE = BuChE (Equus caballus, UniProt P81908); assay: Kinetic characterisation of BuChE inhibition (Lineweaver-Burk); format: biochemical; settings: Lineweaver-Burk plot, Figure 1B
BuChE, sequence (P81908 whole entry): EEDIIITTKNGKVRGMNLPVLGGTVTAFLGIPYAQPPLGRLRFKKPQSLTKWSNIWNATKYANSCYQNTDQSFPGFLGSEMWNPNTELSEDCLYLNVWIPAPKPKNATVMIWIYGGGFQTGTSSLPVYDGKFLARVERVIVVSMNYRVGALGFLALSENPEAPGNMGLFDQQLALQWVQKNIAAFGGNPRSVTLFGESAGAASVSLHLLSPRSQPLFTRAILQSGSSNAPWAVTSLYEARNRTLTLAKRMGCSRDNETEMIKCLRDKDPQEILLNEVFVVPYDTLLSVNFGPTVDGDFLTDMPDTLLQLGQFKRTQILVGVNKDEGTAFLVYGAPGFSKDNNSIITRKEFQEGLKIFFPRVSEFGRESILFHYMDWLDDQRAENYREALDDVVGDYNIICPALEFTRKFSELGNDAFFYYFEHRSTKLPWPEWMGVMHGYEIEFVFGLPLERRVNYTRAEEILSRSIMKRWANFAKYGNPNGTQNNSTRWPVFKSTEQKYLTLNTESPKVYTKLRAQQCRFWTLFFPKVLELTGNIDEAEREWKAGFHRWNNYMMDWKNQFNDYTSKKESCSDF
Protocol: as §1

AChE, sequence (O42275 24-633): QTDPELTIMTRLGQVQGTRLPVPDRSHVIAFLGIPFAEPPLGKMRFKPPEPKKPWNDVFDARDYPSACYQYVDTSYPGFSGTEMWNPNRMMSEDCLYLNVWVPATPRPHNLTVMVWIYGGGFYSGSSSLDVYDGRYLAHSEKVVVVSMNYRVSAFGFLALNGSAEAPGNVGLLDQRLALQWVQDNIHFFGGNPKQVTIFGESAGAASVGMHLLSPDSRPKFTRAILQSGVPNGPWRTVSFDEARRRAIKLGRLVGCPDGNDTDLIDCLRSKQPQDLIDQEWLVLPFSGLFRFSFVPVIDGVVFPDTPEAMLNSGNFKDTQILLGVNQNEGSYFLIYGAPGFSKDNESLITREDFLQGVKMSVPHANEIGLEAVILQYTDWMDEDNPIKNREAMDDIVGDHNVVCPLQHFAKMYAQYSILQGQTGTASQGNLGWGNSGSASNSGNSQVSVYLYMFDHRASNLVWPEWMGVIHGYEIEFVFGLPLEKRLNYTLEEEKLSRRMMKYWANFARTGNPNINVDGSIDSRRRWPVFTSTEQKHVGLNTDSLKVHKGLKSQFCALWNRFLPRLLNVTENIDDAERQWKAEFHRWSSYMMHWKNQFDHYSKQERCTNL

With `COc1cc2c(cc1O)C(c1ccc(OC)c(OC)c1)C(=O)O2` (stereo not shown) [Compound 13, 5-Hydroxy-6-methoxy-3–(3′,4′-dimethoxyphenyl)-benzofuranone] as the compound, how does the “inhibition mode against AChE” value (AChE) read?
Its value is “reversible inhibition”.

And the IC50 [1]?
The IC50 was 5.33 ± 0.08 µM.

And the IC50 (MAO-B)?
The IC50 was 11.2 ± 0.72 µM.

And the “inhibition mode against BuChE” value (BuChE)?
Its value is “reversible inhibition”.
